Test results from US20220162240A1, “MITOCHONDRIA-TARGETED ISOKETAL/ISOLEVUGLANDIN SCAVENGERS” (Vanderbilt University, priority 2019, published 2022).
Entries after “also recorded” stand apart in the source; their conditions may differ.

Experiments:
[1] = test system: intact mouse kidney mitochondria; assay: Swelling and respiration of isolated mouse kidney mitochondria after acute isoLG or isoLG-PE exposure; conditions: for mPTP opening / mitochondrial swelling / inhibition of mitochondrial respiration: 1 μM; for inhibition of mitochondrial respiration: acute treatment of isolated mitochondria, 5 min, glutamate and malate, ADP 50 μM
Protocol: Intact mouse kidney mitochondria with glutamate and malate were incubated (5 min) with ethanol as vehicle, isoLG (1 μM) or isoLG-PE (1 μM) prior to addition of ADP (50 μM) and measurements of oxygen consumption. *P<0.001 vs Control, **P<0.03 vs isoLG.
Reactive isoLG produce protein-Lysine adducts and cytotoxic isoLG-phosphatidylethanolamine adduct (isoLG-PE) which can independently contribute to mitochondrial dysfunction. Indeed, acute treatment of isolated mitochondria with isoLG-PE inhibited respiration by 41% while similar dose of isoLG reduced respiration by 74% which support potential role of both isoLG-PE and isoLG protein-Lysine adducts in mitochondrial dysfunction.

[2] = test system: Ang II-infused C57Bl/6J mice; assay: Blood pressure (tail-cuff) in Ang II-induced hypertension, CypD blocker given after onset; assay type: in vivo; conditions: i.p. 10 mg/kg/day after onset of Ang II-induced hypertension
Protocol: (§1) FIG. 3A-3D is a set of graphs showing examples of targeting CypD in hypertension. Blood pressure in C57Bl/6J mice infused with saline (Sham), Ang II (0.7 mg/kg/day) or treated with CypD blocker Sanglifehrin A (SFA) after onset of Ang II-induced hypertension (Ang II+SFA). Blood pressure was measured by tail-cuff method (A). ^3Following 14 days of saline or Ang II infusion, mice were sacrificed for isolation of aorta to study mitochondrial […] using MitoSOX and HPLC or to study vasodilation. Results are mean±SEM (n=6-8). *P<0.01 vs Sham, **P<0.01 vs Ang II, ***P<0.01 vs Ang II+SFA (n=8).
(§2) One aspect of the present invention is targeting CypD after onset of hypertension. The present inventors implanted wild-type mice with osmotic pump containing Ang II (0.7 mg/kg/day) and started treatment with Sanglifehrin A after onset of Ang II-induced hypertension (FIG. 3A).

mitochondrial superoxide = assay: Aortic mitochondrial superoxide (MitoSOX/HPLC) in Ang II-infused mice treated with CypD blocker; assay type: in vivo; conditions: i.p. 10 mg/kg/day after onset of Ang II-induced hypertension
Protocol: as §1, §2

aorta = assay: Vasodilatation of aorta from Ang II-infused mice treated with CypD blocker; assay type: in vivo; conditions: i.p. 10 mg/kg/day after onset of Ang II-induced hypertension
Protocol: as §1, §2

[3] = test system: human aortic endothelial cells (HAEC); assay: Mitochondrial superoxide in HAEC incubated with Ang II plus TNFα (MitoSOX/HPLC); assay type: cell-based
Protocol: (§3) Free radical oxidation of arachidonic acid produces highly reactive isolevuglandins (isoLG) which causes mitochondrial dysfunction by opening of the mitochondrial permeability transition pore (mPTP). […] The functional role of mitochondrial isoLG was tested in vivo using angiotensin II model of hypertension. C57Bl/6J mice were infused with angiotensin II (0.7 mg/kg/day) or saline (Sham) and received mito2HOBA in the drinking water (0.1 g/L). […] Decrease of NO is a hallmark of endothelial dysfunction in hypertension due to vascular oxidative stress.
(§4) Mitochondrial O2^• and cardiolipin oxidation (specific marker of mitochondrial dysfunction and oxidative stress) in cultured human aortic endothelial cells (HAEC) were incubated with Ang II and TNFα.

[4] = test system: human aortic endothelial cells (HAEC); assay: Cardiolipin oxidation in HAEC incubated with Ang II plus TNFα (LC/MS); assay type: cell-based; conditions: 50 nM, Ang II + TNFα 24 hours
Protocol: as §3, §4

hypertension = conditions: background statement; cited from earlier work
[5] = acute exposure of isolated mitochondria

Molecule: isoLG-phosphatidylethanolamine adduct [isoLG-PE]
- mPTP opening / mitochondrial swelling [1, 5]: mitochondrial swelling
- inhibition of mitochondrial respiration [1]: 41%

Molecule: CC[C@H]1C[C@H](C)[C@@]2(NC1=O)O[C@@H](C[C@H](O)[C@@H](C)CC/C=C/C=C(\C)[C@@H]1C/C=C/C=C/[C@H](O)[C@H](C)[C@@H](O)[C@@H](CCC(C)=O)C(=O)N[C@@H](C(C)C)C(=O)N[C@@H](Cc3cccc(O)c3)C(=O)N3CCC[C@H](N3)C(=O)O1)[C@H](C)[C@H](O)[C@@H]2C [Sanglifehrin A]
- blood pressure [2]: reduces blood pressure
- mitochondrial superoxide production in aorta (mitochondrial superoxide): normalizes
- vasodilatation (aorta): improves vasodilatation

Molecule: NCc1ccccc1O [2HOBA, 2-hydroxybenzylamine, reference compound]
- mitochondrial superoxide production / mitochondrial oxidative stress ([3]; 50 nM, Ang II + TNFα 24 hours, MitoSOX/HPLC): not effective
- concentration required for protection similar to mito2HOBA (50 nM) against mitochondrial oxidative stress ([3]; Ang II + TNFα): much higher concentrations
- cardiolipin oxidation [4]: not effective
- endothelium-dependent relaxation in animal studies (hypertension): protects endothelium-dependent relaxation
- hypertension in animal studies (hypertension): attenuates hypertension
- inflammation in animal studies (hypertension): prevents inflammation

Molecule: isolevuglandins [isoLG]
- mitochondrial respiration [1, 5]: inhibits mitochondrial respiration
- mPTP opening / mitochondrial swelling [1, 5]: induces CypD-dependent mPTP opening; also recorded: mitochondrial swelling
- inhibition of mitochondrial respiration [1]: 74%
